Here are results for four molecules from paper PMC6345825, “Crystal structure of the plant symporter STP10 illuminates sugar uptake mechanism in monosaccharide transporter superfamily” (Nature Communications, 2019).

Structures are written as SMILES. pKd: −log10 of the molar value.

As a reminder, the pKd is the negative decadic logarithm of the Kd, by convention in mol/L.

Experiment [1] has as its target T1, STP10 (Arabidopsis thaliana, UniProt Q9LT15).
T1 construct: full length 514 residues; S. cerevisiae expression, C-terminal thrombin site and His10 tag, tag cut with thrombin for structure (model residues 21-507, monomer); STP10 gene subcloned for Xenopus oocyte and yeast EBY-WV4000 uptake
T1 sequence (Q9LT15 1-514): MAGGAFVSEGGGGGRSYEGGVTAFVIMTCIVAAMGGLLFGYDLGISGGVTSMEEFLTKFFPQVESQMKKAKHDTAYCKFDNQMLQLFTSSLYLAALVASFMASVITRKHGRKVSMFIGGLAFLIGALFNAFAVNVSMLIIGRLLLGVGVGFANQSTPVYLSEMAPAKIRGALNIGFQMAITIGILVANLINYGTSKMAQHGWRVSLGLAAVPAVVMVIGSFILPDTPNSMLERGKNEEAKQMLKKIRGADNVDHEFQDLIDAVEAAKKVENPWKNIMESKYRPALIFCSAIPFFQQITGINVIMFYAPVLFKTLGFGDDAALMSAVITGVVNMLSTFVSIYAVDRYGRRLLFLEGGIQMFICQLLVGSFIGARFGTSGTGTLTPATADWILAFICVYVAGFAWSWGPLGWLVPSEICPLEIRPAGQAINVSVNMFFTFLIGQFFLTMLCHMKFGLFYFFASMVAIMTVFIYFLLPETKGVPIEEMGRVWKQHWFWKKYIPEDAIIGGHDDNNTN
The experiment is described as follows: [3H]-2-deoxy-D-glucose uptake in yeast EBY-WV4000. Type of experiment: cell-based. The settings on record: pH 5.0; 30 °C; labelled compound.

For experiment [2], the target named is T1, STP10. The experiment is described as follows: competition with [3H]-D-glucose uptake in yeast EBY-WV4000. Type of experiment: cell-based. The settings on record: pH 5.0; 30 °C; 250 µM competitor against 10 µM D-glucose.
The target of experiment [3] is T1, STP10. As to the kind of experiment: isothermal titration calorimetry, purified protein, one-site model. Conditions: pH 5.5; 20 °C; 0.03% DDM; read-out: apparent Kd. In general terms: ITC needs no label: the signal is the heat of the interaction.
In experiment [4] the target is T1, STP10. As to the kind of experiment: X-ray crystal structure, […] Å. Conditions: central binding site; outward occluded state; lipidic cubic phase, pH 4.5.

Turning to `OC[C@H]1OC(O)C[C@@H](O)[C@@H]1O` (some centres unmarked) [2-deoxyglucose], the “[3H]-2-deoxy-D-glucose uptake in yeast EBY-WV4000” value at STP10 [1] is listed as “The protein can transport the non-metabolized glucose analog 2-deoxyglucose”.

As for `OC[C@H]1OC(O)[C@H](O)[C@@H](O)[C@H]1O` (some centres unmarked) [galactose], the competition entry on STP10 [2] was “Competition assays using radioactively labeled glucose confirm galactose and mannose as potential substrates”. As to `OC[C@H]1OC(O)[C@H](O)[C@@H](O)[C@@H]1O` (some centres unmarked) [glucose], the pKd at STP10 [3] was 5.49. The “X-ray crystal structure, 2.4 Å” value at STP10 [4] is “contains unambiguous density for glucose”. As to `OC[C@H]1OC(O)[C@@H](O)[C@@H](O)[C@@H]1O` (some centres unmarked) [mannose], on STP10 [2], the competition result was “Competition assays using radioactively labeled glucose confirm galactose and mannose as potential substrates”.
